Measured values as given in patent US20140057915A1, “KINASE INHIBITORS” (TOPIVERT PHARMA LIMITED, priority 2012, published 2014).

How the values were obtained:
IL-8 release, PBMCs = test: LPS-induced IL-8 release in PBMC cells; format: cell-based; settings: Homo sapiens, LPS stimulated, read-out: IC50 Values for Inhibition of Cytokine Release, PBMCs, IL-8
Procedure, shortened: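 PBMCs from healthy donors pretreated with compound for 2 h, then stimulated with 1 ng/ml LPS (E. coli 0111:B4) for 24 h at 37 °C, 5% CO2. Supernatant IL-8 and TNFα measured by sandwich ELISA with fluorescence read-out.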

[1] = tested on: ICAM-1 expression, BEAS2B cells; test: Poly I:C-induced ICAM-1 expression in BEAS2B cells; format: cell-based; settings: Homo sapiens, BEAS-2B; read-out: Poly IC induced ICAM1 in BEAS2B, IC50
Procedure, shortened: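 BEAS2B human bronchial epithelial cells pre-incubated 2 h with compound, then transfected with poly I:C (1 μg/mL) plus Oligofectamine. After 18 h, cell-surface ICAM-1 read by cell-based ELISA (A450–655), normalised to Crystal Violet cell number (A595); inhibition calculated against vehicle control at each concentration.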

GSK3α = GSK3α (Homo sapiens, UniProt P49840); test: GSK 3α enzyme inhibition (FRET), Method 1; format: biochemical; settings: Table 4a1
Chain of GSK3α (P49840 whole entry): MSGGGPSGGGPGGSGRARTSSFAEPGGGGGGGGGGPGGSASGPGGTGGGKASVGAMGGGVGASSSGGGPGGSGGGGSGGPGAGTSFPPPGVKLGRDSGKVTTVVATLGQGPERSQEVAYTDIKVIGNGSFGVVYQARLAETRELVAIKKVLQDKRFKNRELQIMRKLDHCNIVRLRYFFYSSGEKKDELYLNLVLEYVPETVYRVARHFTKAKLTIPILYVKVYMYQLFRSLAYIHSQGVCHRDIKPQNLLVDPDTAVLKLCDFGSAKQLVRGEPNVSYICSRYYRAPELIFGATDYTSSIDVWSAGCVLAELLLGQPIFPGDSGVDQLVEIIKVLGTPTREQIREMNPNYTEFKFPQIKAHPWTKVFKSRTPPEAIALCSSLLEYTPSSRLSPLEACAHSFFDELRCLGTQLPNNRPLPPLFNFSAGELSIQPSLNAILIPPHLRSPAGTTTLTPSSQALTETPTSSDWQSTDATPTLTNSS
Procedure, shortened: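 Z-LYTE FRET format. Enzyme (500 ng/mL stock) + compound (stocks 4–0.004 μg/mL), 2 hr RT; add peptide (8 μM stock) + ATP (40 μM stock), 1 hr; protease 1 hr; read donor/acceptor emission ratio.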

d-U937 cells = test: Cell viability: MTT assay; format: cell-based, human; settings: 1 μg/mL
Procedure, shortened: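 Differentiated U937 cells exposed to compound at 1 or 10 μg/mL, either 4 h in 5% FCS or 24 h in 10% FCS RPMI1640. MTT then added for 1 h, formazan dissolved in DMSO and read at 550 nm. Viability loss given as % versus 0.5% DMSO vehicle; apparent gains appear negative.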

Syk = Syk (Homo sapiens, UniProt P43405); test: Syk enzyme inhibition (FRET); format: biochemical
Procedure, shortened: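 2 hr RT enzyme + cpd (added solns 4/0.4/0.04/0.004 μg/mL); + FRET peptide (8 μM soln) + ATP soln (c-Src 800 μM, Syk 60 μM), 1 hr; protease development 1 hr; read donor/acceptor emission ratio.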

IL-8 release, HT29 cells = test: IL-1β-induced IL-8 release in HT29 cells; format: cell-based; settings: Homo sapiens, HT-29; IL-1β stimulated; read-out: IC50 Values for Inhibition of Cytokine Release, HT29 cells, IL-8
Experimental: (d) IL-1β-Induced IL-8 Release in HT29 Cells
HT29 cells, a human colon adenocarcinoma cell line, are plated in a 96 well plate (24 hrs) and pre-treated with compounds at the desired concentration for 2 hours before addition of 5 ng/ml of IL-1β (Abeam) for 24 hours, Supernatants are harvested for IL-8 quantification by Sandwich ELISA (Duo-set, R&D System). The IC50 is determined from the dose response curve.

[2] = Table 4a2, different laboratory

Compound	IC50 (IL-8 release, PBMCs) [nM]	IC50 [1] [nM]	IC50 (GSK3α) [nM]	Cell viability at time point in d-U937 cells, 4 h (d-U937 cells)	Cell viability at time point in d-U937 cells, 24 h (d-U937 cells)	IC50 (Syk; Table 4a1) [nM]	IC50 (Syk; [2]) [nM]	IC50 (IL-8 release, HT29 cells) [nM]
Cc1ccc(-n2nc(C(C)C)cc2NC(=O)Nc2ccc(Oc3ccnc(Nc4cc(C(=O)NCCN5CCOCC5)cc(C(F)(F)F)c4)n3)c3ccccc23)cc1 [Example 7, 3-((4-((4-(3-(3-isopropyl-1-(p-tolyl)-1H-pyrazol-5-yl)ureido)naphthalen-1-yl)oxy)pyrimidin-2-yl)amino)-N-(2-morpholinoethyl)-5-(trifluoromethyl)benzamide]	2.4	1.5	> 12600	−ve (−ve and +ve indicate that the value is below and above respectively, the no significant effect threshold, defined as 30% inhibition at 1 μg/mL at the time point indicated)	−ve (−ve and +ve indicate that the value is below and above respectively, the no significant effect threshold, defined as 30% inhibition at 1 μg/mL at the time point indicated)	–	–	–
COc1cc(Nc2nccc(Oc3ccc(NC(=O)Nc4cc(C(F)(F)C(F)(F)F)nn4-c4ccc(C)cc4)c4ccccc34)n2)cc(C(=O)NCCN2CCOCC2)c1 [Example 9]	2.3	6.9	8030	−ve (−ve and +ve indicate that the value is below and above respectively, the no significant effect threshold, defined as 30% inhibition at 1 μg/mL at the time point indicated)	−ve (−ve and +ve indicate that the value is below and above respectively, the no significant effect threshold, defined as 30% inhibition at 1 μg/mL at the time point indicated)	–	–	–
COCCNC(=O)c1cc(Nc2nccc(Oc3ccc(NC(=O)Nc4cc(C(C)C)nn4-c4ccc(OC)cc4)c4ccccc34)n2)cc(OC)c1 [Example 11, 3-((4-((4-(3-(3-Isopropyl-1-(4-methoxyphenyl)-1H-pyrazol-5-yl)ureido)naphthalen-1-yl)oxy)pyrimidin-2-yl)amino)-5-methoxy-N-(2-methoxyethyl)benzamide]	3	1.2	> 14000	−ve (−ve and +ve indicate that the value is below and above respectively, the no significant effect threshold, defined as 30% inhibition at 1 μg/mL at the time point indicated)	−ve (−ve and +ve indicate that the value is below and above respectively, the no significant effect threshold, defined as 30% inhibition at 1 μg/mL at the time point indicated)	75	126	–
COc1ccc(-n2nc(C3(C)COC3)cc2NC(=O)Nc2ccc(Oc3ccnc(Nc4cccc(C(=O)NCCN5CCOCC5)c4)n3)c3ccccc23)cc1 [Example 23, 3-((4-((4-(3-(1-(4-methoxyphenyl)-3-(3-methyloxetan-3-yl)-1H-pyrazol-5-yl)ureido)naphthalen-1-yl)oxy)pyrimidin-2-yl)amino)-N-(2-morpholinoethyl)benzamide]	–	27.7	2990	−ve (−ve and +ve indicate that the value is below and above respectively, the no significant effect threshold, defined as 30% inhibition at 1 μg/mL at the time point indicated)	−ve (−ve and +ve indicate that the value is below and above respectively, the no significant effect threshold, defined as 30% inhibition at 1 μg/mL at the time point indicated)	203	–	–
COc1ccc(-n2nc(C(C)(C)C)cc2NC(=O)Nc2ccc(Oc3ccnc(Nc4cc(Br)cc(C(N)=O)c4)n3)c3ccccc23)cc1 [Example 42, 3-bromo-5-((4-((4-(3-(3-(tert-butyl)-1-(4-methoxyphenyl)-1H-pyrazol-5-yl)ureido)naphthalen-1-yl)oxy)pyrimidin-2-yl)amino)benzamide]	–	2.3	> 1390	−ve (−ve and +ve indicate that the value is below and above respectively, the no significant effect threshold, defined as 30% inhibition at 1 μg/mL at the time point indicated)	−ve (−ve and +ve indicate that the value is below and above respectively, the no significant effect threshold, defined as 30% inhibition at 1 μg/mL at the time point indicated)	67	–	–
COc1cc(Nc2nccc(Oc3ccc(NC(=O)Nc4cc(C5CC5)nn4-c4ccc(C)cc4)c4ccccc34)n2)cc(C(=O)NCCN2CCOCC2)c1 [Example 50, 3-((4-((4-(3-(3-cyclopropyl-1-(p-tolyl)-1H-pyrazol-5-yl)ureido)naphthalen-1-yl)oxy)pyrimidin-2-yl)amino)-5-methoxy-N-(2-morpholinoethyl)benzamide]	7.3	16.6	> 13300	−ve (−ve and +ve indicate that the value is below and above respectively, the no significant effect threshold, defined as 30% inhibition at 1 μg/mL at the time point indicated)	−ve (−ve and +ve indicate that the value is below and above respectively, the no significant effect threshold, defined as 30% inhibition at 1 μg/mL at the time point indicated)	32	–	–
COc1cc(Nc2nccc(Oc3ccc(NC(=O)Nc4cc(C5(C)CC5)nn4-c4ccc(C)cc4)c4ccccc34)n2)cc(C(=O)NCCN2CCOCC2)c1 [Example 51, 3-methoxy-5-((4-((4-(3-(3-(1-methylcyclopropyl)-1-(p-tolyl)-1H-pyrazol-5-yl)ureido)naphthalen-1-yl)oxy)pyrimidin-2-yl)amino)-N-(2-morpholinoethyl)benzamide]	–	3.6	> 13000	−ve (−ve and +ve indicate that the value is below and above respectively, the no significant effect threshold, defined as 30% inhibition at 1 μg/mL at the time point indicated)	−ve (−ve and +ve indicate that the value is below and above respectively, the no significant effect threshold, defined as 30% inhibition at 1 μg/mL at the time point indicated)	649	–	–
COc1ccc(-n2nc(C(C)C)cc2NC(=O)Nc2ccc(Oc3ccnc(Nc4cc(OC)cc(C(=O)NCCN5CCOCC5)c4)n3)c3ccccc23)cc1 [Example 53, 3-((4-((4-(3-(3-isopropyl-1-(4-methoxyphenyl)-1H-pyrazol-5-yl)ureido)naphthalen-1-yl)oxy)pyrimidin-2-yl)amino)-5-methoxy-N-(2-morpholinoethyl)benzamide]	3.1	4	> 13000	−ve (−ve and +ve indicate that the value is below and above respectively, the no significant effect threshold, defined as 30% inhibition at 1 μg/mL at the time point indicated)	−ve (−ve and +ve indicate that the value is below and above respectively, the no significant effect threshold, defined as 30% inhibition at 1 μg/mL at the time point indicated)	3	–	–
C#Cc1cc(Nc2nccc(Oc3ccc(NC(=O)Nc4cc(C(C)(C)C)nn4-c4ccc(OC)cc4)c4ccccc34)n2)cc(C(=O)NCCN2CCOCC2)c1 [Example 77, 3-((4-((4-(3-(3-(tert-Butyl)-1-(4-methoxyphenyl)-1H-pyrazol-5-yl)ureido)-naphthalen-1-yl)oxy)pyrimidin-2-yl)amino)-5-ethynyl-N-(2-morpholinoethyl)benzamide]	1.1	–	–	–	–	–	18	2
C#Cc1cc(Nc2nccc(Oc3ccc(NC(=O)Nc4cc(C(C)(C)C)nn4-c4ccc(N(C)C)cc4)c4ccccc34)n2)cc(C(=O)NCCN2CCOCC2)c1 [Example 80, 3-((4-((4-(3-(3-(tert-Butyl)-1-(4-(dimethylamino)phenyl)-1H-pyrazol-5-yl)ureido)naphthalen-1-yl)oxy)pyrimidin-2-yl)amino)-5-ethynyl-N-(2-morpholinoethyl)-benzamide]	1.5	–	–	–	–	–	25	6.2
